Assay results taken from PMC3515450, “Mechanistic and Structural Understanding of Uncompetitive Inhibitors of Caspase-6” (PLoS ONE, 2012).

What was measured:
apo-caspase-6 = target: T1, apo-caspase-6 (Homo sapiens, UniProt P55212); assay: SPR binding to apo-caspase-6; conditions: Rmax locked to control compound
T1 construct: Residues 24-179 and 194-293 from caspase-6 cDNA (Origene) were cloned into pET-24b and pET-23b vectors; 6x histidine tag; made in house; host or cells: E. coli (as above), BirA co-expressed
T1 sequence (P55212 24-179): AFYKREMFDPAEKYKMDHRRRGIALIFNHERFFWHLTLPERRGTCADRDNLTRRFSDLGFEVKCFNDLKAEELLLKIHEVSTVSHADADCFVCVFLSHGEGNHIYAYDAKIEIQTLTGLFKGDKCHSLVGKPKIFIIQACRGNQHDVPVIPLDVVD
T1 sequence (P55212 194-293): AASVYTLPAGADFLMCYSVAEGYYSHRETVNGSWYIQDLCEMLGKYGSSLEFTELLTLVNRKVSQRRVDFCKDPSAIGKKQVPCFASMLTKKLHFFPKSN
Description: (§1) For SPR experiments, caspase-6 was cloned to include a C-terminal avi-tag (Avidity) and expressed and purified as above, except that biotin ligase (BirA) was co-expressed during fermentation. […] Avi-tagged zymogen C163A-caspase-6 was processed to mature C163A-caspase-6 by the addition of active caspase-3 and caspase-6. Chip preparation for neutravidin-based capture was performed as previously described using either a Biacore T100 or Biacore 3000 instrument (GE Healthcare). Running buffer was 50 mM HEPES pH 7.2, 100 mM MgSO4, 30 mM NaCl, 1 mM TCEP, 0.01% Triton X-100, 1% PEG-3350, 2.5% DMSO, and the instrument was set for 20 degrees C. After capture one flow cell of apo-caspase-6 was exposed to a continuous flow of 20 µM VEID-FMK. A rise in signal could be detected for the binding/reacting of the VEID-FMK and exposure was continued until no additional rise in response was observed (∼45 minutes) indicating full saturation of all binding sites. There was no observed decrease in signal upon washing, indicating the reaction was irreversible. […] Fluorescent substrates were too limiting in solubility and quantity to be added to the running buffer, so substrates were mixed at a concentration equal to their Kmapp with 3 and injected together over the indicated surfaces. […]

caspase-6 = target: T2, caspase-6 (Homo sapiens, UniProt P55212); assay: Steady-state Michaelis-Menten kinetic analysis of caspase-6; format: biochemical
T2 construct: Residues 24-179 and 194-293 from caspase-6 cDNA (Origene) were cloned into pET-24b and pET-23b vectors; 6x histidine tag (C); made in house; host or cells: E. coli BL21 (DE3) pLysS
T2 sequence (P55212 24-179): T1 sequence (P55212 24-179)
T2 sequence (P55212 194-293): T1 sequence (P55212 194-293)
Description: The in vitro enzymatic caspase assays utilize synthetic tetrapeptide substrates labeled with the fluorophores Rhodamine110 (R110) or 7-amino-4-methylcoumarin (AMC) at the P1 aspartic acid (Asp) residue. All assays were performed in 384-well plates in 12 µL reaction volume consisting of enzyme, substrate and indicated concentration of inhibitor or DMSO in assay buffer (50 mM HEPES [pH 7.0], 25 mM MgSO4, 0.5 mM EGTA, 5 mM Glutathione (GSH), 0.01% Triton X-100 containing 0.1% Bovine Gamma Globulin (BGG)). All inhibitors were serially diluted in 100% DMSO prior to dilution in assay buffer and transfer to assay plate. DMSO was diluted into assay buffer similarly for blank wells (no enzyme or compound) and final DMSO concentration was 1%. The concentration of caspase-6 used in enzymatic reactions typically varied between 1–10 nM depending on substrate used. Unless otherwise indicated, substrate concentration was within 3-fold of the determined Kmapparent (5 µM (Ac-VEID)2R110 [Kmapp = 8 µM]; 5 µM (Ac-DEVD)2R110 [Kmapp = 8 µM]; 25 µM (Ac-IETD)2R110 [Kmapp = 70 µM]; 25 µM (Ac-WEHD)2R110 [Kmapp = 70 µM]; 10µM Ac-VEID-AMC [Kmapp = 16µM]; 5 µM Ac-VEID-R110 [Kmapp = 8 µM]). The concentration of substrate utilized in selectivity assays for each caspase isoform was also held as close to Kmapparent as reasonably achievable (Table S1). Caspases-3 and -7 were expressed and purified at Genentech as the catalytic domain consisting of large p20 and small p10 subunits without prodomain. For all caspase enzymatic assays, the reaction plate was incubated at room temperature for 40 minutes and then read on Envision (Perkin Elmer) fluorescent plate reader at excitation/emission wavelengths of 485/535 nm (R110) or 350/450 nm (AMC).
The endpoint fluorescent emission (RFU) in each well was plotted as a function of inhibitor concentration and the 50% inhibition (IC50) values were determined using a nonlinear least squares fit of the data to a four parameter equation using Prism 5.0 software (GraphPad Software, San Diego, CA). […] Ki values for Compound 3 were calculated using this equation: Ki = IC50/(Km/[S] +1). Concentration-response curves for each inhibitor were normalized to zero and 100% based on no enzyme or DMSO control, respectively. For steady-state kinetic analysis, initial reaction velocity (RFU/minute) was plotted against substrate concentration at each inhibitor concentration and the data was fit to a hyperbolic Michaelis-Menten model using Prism 5.0 software. Km (µM) and Vmax (RFU/minute) were calculated by using this equation: v = Vmax • [S]/Km+[S] where v = initial reaction velocity at indicated substrate concentration (S). Vmax values were normalized to zero and 100% based on no enzyme or DMSO control, respectively.

[1] = target: T3, covalent VEID/caspase-6 complex (Homo sapiens, UniProt P55212); assay: SPR binding to VEID-FMK-blocked caspase-6; conditions: covalent VEID/caspase-6 (acyl enzyme) complex, 1:1 binding
T3 construct: Residues 24-179 and 194-293 from caspase-6 cDNA (Origene) were cloned into pET-24b and pET-23b vectors; 6x histidine tag; made in house; host or cells: E. coli (as above), BirA co-expressed
T3 sequence (P55212 24-179): T1 sequence (P55212 24-179)
T3 sequence (P55212 194-293): T1 sequence (P55212 194-293)
Description: as §1

With `COc1ccc(-c2cc(C(=O)N[C@@H](CO)Cc3cccc(C#N)c3)co2)cc1OC` [Compound 3] the Kd (apo-caspase-6) was 192 µM, the “Vmax (% of DMSO control) for (VEID)2R110” value (caspase-6; 3 nM of 3) was 77.51 % of DMSO control and the “Vmax (% of DMSO control) for (VEID)2R110” value (caspase-6; 10 nM of 3) was 55.35 % of DMSO control. The “Vmax (% of DMSO control) for (VEID)2R110” value (caspase-6; 30 nM of 3) was 31.09 % of DMSO control, the “Vmax (% of DMSO control) for (VEID)2R110” value (caspase-6; 100 nM of 3) was 14.10 % of DMSO control and the mechanism of inhibition (caspase-6; (DEVD)2R110 substrate) was “uncompetitive”. The mechanism of inhibition (caspase-6; (VEID)2R110 substrate) was “uncompetitive” and the Kd [1] was 1.3 µM.
